Laboratory results from article PMC6270420, “Antibacterial Activity of Salicylanilide 4-(Trifluoromethyl)benzoates” (Molecules, 2013).
Like-named read-outs stand apart in the source and are kept apart here.

System: HepG2 cells
Assay: Cytotoxicity evaluation (CellTiter 96 MTS)
Assay type: cell-based, human
Details: read-out: IC50 HepG2
Experimental: Seven esters and their parent salicylanilides with the most robust antimicrobial activity were tested for cytotoxicity in the human hepatocellular liver carcinoma cell line HepG2 (passages 21–24; ECACC, Salisbury, UK) using a standard colorimetric method measuring a tetrazolium salt reduction (CellTiter(R) 96 AQueous One Solution Assay, Promega G3580, Madison, WI, USA).
The cells were routinely cultured in Minimum Essentials Eagle Medium (Sigma-Aldrich, Darmstadt, Germany) supplemented with 10% foetal bovine serum (PAA; Biotech, Prague, Czech Republic), 1% of L-glutamine solution (Sigma-Aldrich), and non-essential amino acids solution (Sigma-Aldrich) in a humidified atmosphere containing 5% CO2 at 37 °C. For subculturing, the cells were harvested after trypsin/EDTA (Sigma-Aldrich) treatment at 37 °C. The cells treated with the tested substances were used as experimental groups. Untreated HepG2 cells were used as control groups.
The cells were seeded in density 1 × 10^4 cells per well in a 96-well plate with microscopic control. Next day, the cells were treated with each of the tested substances. […] The most of the tested compounds were prepared in incubation concentrations of 0.01–20 µM in triplicates. 4-(Trifluoromethyl)benzoic acid was applied in the concentrations of 10–4,000 µM in triplicates. The following types of controls were included: determination of 100% viability and 0% viability (the cells treated by 10% DMSO), no cell control and vehiculum controls. These checking samples were prepared in triplicates.
The treated cells were incubated together with controls at 37 °C for 24 h in 5% CO2 atmosphere. After this time reagent from the kit CellTiter 96 AQueous One Solution Cell Proliferation Assay was added. The CellTiter 96 assay is based on the reduction of tetrazolium salt MTS [3-(4,5-dimethylthiazol-2-yl)-5-(3-carboxymethoxyphenyl)-2-(4-sulfophenyl)-2H-tetrazolium] to water-soluble formazan dye by metabolically active cells. The reduction of the reagent is attributed to availability of NADH or NADPH. The decline in levels of these metabolically important compounds in the cell causes that the production of formazan is reduced. The tested plate was incubated for 2 h at 37 °C and 5% CO2 and after this time, the absorbance was recorded at 490 nm using a 96-well plate reader (TECAN, Infinite M200, Grödig, Austria).
The results were expressed as inhibitory concentration which is necessary to inhibit cell viability to 50% from the maximal (control) viability (IC50). A standard toxicological parameter IC50 was calculated in each of the tested substances using GraphPad Prism software (version 5.02; GraphPad Software Inc., San Diego, CA, USA).

`O=C(Nc1ccc(Cl)c(Cl)c1)c1ccc(Cl)cc1O` [SAL-2] gave an IC50 (24 h, cytotoxicity) of 1800 nM.

With `O=C(Nc1cccc(Br)c1)c1cc(Cl)ccc1O` [SAL-3] the IC50 (24 h, cytotoxicity) was 1540 nM.

`O=C(Nc1ccc(Br)cc1)c1ccc(Cl)cc1O` [SAL-4] gave an IC50 (24 h, cytotoxicity) of 1980 nM.

In the case of `O=C(Nc1ccc(C(F)(F)F)cc1)c1cc(Cl)ccc1O` [SAL-5, 5-chloro-2-hydroxy-N-[4-(trifluoromethyl)phenyl]benzamide], the IC50 (Homo sapiens, HepG2, 24 h, cytotoxicity) is reported as 360 nM.

Work on `O=C(Nc1ccc(C(F)(F)F)cc1)c1ccc(Cl)cc1O` [SAL-6] yielded an IC50 (24 h, cytotoxicity) of 690 nM.

In the case of `O=C(Nc1ccc(C(F)(F)F)cc1)c1cc(Br)ccc1O` [SAL-7, 5-Bromo-2-hydroxy-N-[4-(trifluoromethyl)phenyl]benzamide], the IC50 (Homo sapiens, HepG2, 24 h) is reported as 1670 nM.
